Each structure is given as a SMILES string. pIC50: −log10 of the molar value. Calls of active or inactive are those of the source.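 How the source made its calls: active means IC50 at or below 20 µM; inactive means the rest.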

The target of the assay is glucose-6-phosphate dehydrogenase-6-phosphogluconolactonase (PfGluPho), Plasmodium falciparum 3D7. The experiment in a line: PfG6PD enzyme inhibitors, SAR follow-up, biochemical, fluorescence intensity, set 2 (AID 588671). The following applies: recombinant PfGluPho, diaphorase-resazurin NADPH fluorescence. (The colour change of resazurin is a common sign of viable cells or microbes.)
In the case of `O=C1COc2ccc(C(=O)NCCN3CCCCC3)cc2N1`, the IC50 (commonly the midpoint of a concentration-inhibition curve) was > 80 µM (inactive).

As for `O=C1Nc2cc(C(=O)NCc3ccccc3)ccc2S/C1=C\c1ccccc1F`, the IC50 was > 80 µM (inactive).

Consider `CCN1CCCC1CNC(=O)c1ccc2c(c1)NC(=O)/C(=C/c1ccccc1C)S2` (configuration not stated), for which the negative-log IC50 (pIC50) (commonly the IC50 on a negative log10 scale, so that one unit is a factor of ten) is 5.23.

For `CCN1CCCC1CNC(=O)c1ccc2c(c1)NC(=O)CS2` (configuration not stated), the IC50 was > 80 µM (inactive).

On to `O=C(NCCN1CCOCC1)c1ccc2c(c1)NC(=O)c1ccccc1O2`, for which the IC50 was > 80 µM (inactive).

Consider `CCN1CCCC1CNC(=O)c1ccc2c(c1)NC(=O)/C(=C/c1ccccc1OC)S2` (configuration not stated), for which the pIC50 is 5.01.

On to `CN(C)CCNC(=O)c1ccc2c(c1)NC(=O)c1ccccc1O2`, for which the IC50 is > 80 µM (inactive).

Consider `CCN1CCC[C@@H]1CNC(=O)c1ccc2c(c1)NC(=O)/C(=C/c1ccccc1F)S2`, for which the pIC50 is 5.92.

In the case of `O=C1COc2ccc(C(=O)NCCN3CCCC3)cc2N1`, the IC50 was > 80 µM (inactive).

In the case of `CCN(CC)CCNC(=O)c1ccc2c(c1)NC(=O)CO2`, the IC50 is > 80 µM (inactive).

For the compound `CCN1CCCC1CNC(=O)c1ccc2c(c1)NC(=O)c1ccccc1S2` (configuration not stated), the pIC50 is 5.00.

For the compound `CN(C)CCNC(=O)c1ccc2c(c1)NC(=O)CO2`, the IC50 was > 80 µM (inactive).

In the case of `CCN1CCCC1CNC(=O)c1ccc2c(c1)NC(=O)c1ccccc1O2` (configuration not stated), the IC50 entry was “inactive”.

On to `CCN1CCCC1CNC(=O)c1ccc2c(c1)NC(=O)CO2` (configuration not stated), for which the IC50 is > 80 µM (inactive).

In the case of `O=C(NCCN1CCCC1)c1ccc2c(c1)NC(=O)c1ccccc1O2`, the IC50 entry is “inactive”.

In the case of `CN1CCN(C(=O)c2ccc3c(c2)NC(=O)/C(=C/c2ccccc2Cl)S3)CC1`, the IC50 was > 80 µM (inactive).

Take `O=C1COc2ccc(C(=O)NCCN3CCOCC3)cc2N1`: the IC50 was > 80 µM (inactive).

Take `O=C(NCCN1CCCC1)c1ccc2c(c1)NC(=O)c1ccccc1S2`: the IC50 result was “inactive”.

For `CCN1CCC[C@H]1CNC(=O)c1ccc2c(c1)NC(=O)/C(=C/c1ccccc1F)S2`, the negative logarithm of the IC50 (pIC50) was 5.32.

As to `CCN1CCCC1CNC(=O)c1ccc2c(c1)NC(=O)/C(=C/c1cccc3ccccc13)S2` (configuration not stated), the pIC50 was 5.37.

As for `O=C1Nc2cc(C(=O)NCCN3CCCCC3)ccc2S/C1=C\c1ccccc1F`, the IC50 result was “inactive”.

As for `CCN1CCCC1CNC(=O)c1ccc2c(c1)NC(=O)/C(=C/c1ccccc1F)S2` (configuration not stated), the pIC50 is 5.77.

Consider `O=C1Nc2cc(C(=O)NCCN3CCOCC3)ccc2S/C1=C\c1ccccc1F`, for which the IC50 was > 80 µM (inactive).

For `O=C(NCCN1CCCCC1)c1ccc2c(c1)NC(=O)c1ccccc1O2`, the IC50 entry is “inactive”.

On to `CN1CCCC1CCNC(=O)c1ccc2c(c1)NC(=O)/C(=C/c1ccccc1F)S2` (configuration not stated), for which the IC50 entry is “inactive”.

As to `CCN(CC)CCNC(=O)c1ccc2c(c1)NC(=O)c1ccccc1O2`, the IC50 result is “inactive”.

Take `CCN(CC)CCNC(=O)c1ccc2c(c1)NC(=O)c1ccccc1S2`: the IC50 result is “inactive”.

The record behind these values is PubChem BioAssay AID588671 (Sanford-Burnham Center for Chemical Genomics, 2011).
